Experiments:
PIK3CD (Human) = PIK3CD (Human) (UniProt O00329); test: Assessment of PIK3CD Kinase Activity
PIK3CG (human) = PIK3CG (human) (UniProt P48736); test: Assessment of PIK3CG Kinase Activity
PIK3CA (human) = PIK3CA (human) (UniProt P42336); test: Assessment of PIK3CA Kinase Activity
PIK3CB (Human) = PIK3CB (Human) (UniProt P42338); test: Assessment of PIK3CB Kinase Activity
Chain of PIK3CB (Human) (P42338 whole entry, looked up): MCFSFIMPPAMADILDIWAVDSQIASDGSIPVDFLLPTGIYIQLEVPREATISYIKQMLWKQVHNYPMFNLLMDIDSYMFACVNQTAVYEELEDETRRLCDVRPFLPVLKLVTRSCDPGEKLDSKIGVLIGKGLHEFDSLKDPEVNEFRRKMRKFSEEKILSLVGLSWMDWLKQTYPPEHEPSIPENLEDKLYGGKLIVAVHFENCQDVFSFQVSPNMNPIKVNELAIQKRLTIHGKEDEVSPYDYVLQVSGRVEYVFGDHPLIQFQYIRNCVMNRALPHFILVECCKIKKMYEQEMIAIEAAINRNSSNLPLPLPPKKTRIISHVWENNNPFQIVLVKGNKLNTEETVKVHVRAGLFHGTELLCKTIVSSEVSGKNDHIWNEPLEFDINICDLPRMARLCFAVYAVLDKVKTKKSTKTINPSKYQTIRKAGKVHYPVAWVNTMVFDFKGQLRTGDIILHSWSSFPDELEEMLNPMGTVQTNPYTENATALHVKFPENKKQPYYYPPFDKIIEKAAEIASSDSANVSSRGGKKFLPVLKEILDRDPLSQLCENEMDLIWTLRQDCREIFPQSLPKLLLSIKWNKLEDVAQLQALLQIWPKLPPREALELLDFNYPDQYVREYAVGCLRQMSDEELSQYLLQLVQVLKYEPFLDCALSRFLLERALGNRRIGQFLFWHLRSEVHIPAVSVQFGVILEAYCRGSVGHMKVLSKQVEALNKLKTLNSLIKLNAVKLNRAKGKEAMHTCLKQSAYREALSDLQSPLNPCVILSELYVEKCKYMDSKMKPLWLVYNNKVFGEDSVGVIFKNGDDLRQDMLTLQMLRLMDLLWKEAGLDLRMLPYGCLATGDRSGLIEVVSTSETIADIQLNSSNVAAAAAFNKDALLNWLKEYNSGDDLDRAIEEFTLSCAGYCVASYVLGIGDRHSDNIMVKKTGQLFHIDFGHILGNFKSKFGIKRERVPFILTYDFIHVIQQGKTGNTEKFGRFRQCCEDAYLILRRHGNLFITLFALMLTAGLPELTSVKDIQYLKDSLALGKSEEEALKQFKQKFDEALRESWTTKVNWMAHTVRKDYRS

Chain of PIK3CG (human) (P48736 whole entry, looked up): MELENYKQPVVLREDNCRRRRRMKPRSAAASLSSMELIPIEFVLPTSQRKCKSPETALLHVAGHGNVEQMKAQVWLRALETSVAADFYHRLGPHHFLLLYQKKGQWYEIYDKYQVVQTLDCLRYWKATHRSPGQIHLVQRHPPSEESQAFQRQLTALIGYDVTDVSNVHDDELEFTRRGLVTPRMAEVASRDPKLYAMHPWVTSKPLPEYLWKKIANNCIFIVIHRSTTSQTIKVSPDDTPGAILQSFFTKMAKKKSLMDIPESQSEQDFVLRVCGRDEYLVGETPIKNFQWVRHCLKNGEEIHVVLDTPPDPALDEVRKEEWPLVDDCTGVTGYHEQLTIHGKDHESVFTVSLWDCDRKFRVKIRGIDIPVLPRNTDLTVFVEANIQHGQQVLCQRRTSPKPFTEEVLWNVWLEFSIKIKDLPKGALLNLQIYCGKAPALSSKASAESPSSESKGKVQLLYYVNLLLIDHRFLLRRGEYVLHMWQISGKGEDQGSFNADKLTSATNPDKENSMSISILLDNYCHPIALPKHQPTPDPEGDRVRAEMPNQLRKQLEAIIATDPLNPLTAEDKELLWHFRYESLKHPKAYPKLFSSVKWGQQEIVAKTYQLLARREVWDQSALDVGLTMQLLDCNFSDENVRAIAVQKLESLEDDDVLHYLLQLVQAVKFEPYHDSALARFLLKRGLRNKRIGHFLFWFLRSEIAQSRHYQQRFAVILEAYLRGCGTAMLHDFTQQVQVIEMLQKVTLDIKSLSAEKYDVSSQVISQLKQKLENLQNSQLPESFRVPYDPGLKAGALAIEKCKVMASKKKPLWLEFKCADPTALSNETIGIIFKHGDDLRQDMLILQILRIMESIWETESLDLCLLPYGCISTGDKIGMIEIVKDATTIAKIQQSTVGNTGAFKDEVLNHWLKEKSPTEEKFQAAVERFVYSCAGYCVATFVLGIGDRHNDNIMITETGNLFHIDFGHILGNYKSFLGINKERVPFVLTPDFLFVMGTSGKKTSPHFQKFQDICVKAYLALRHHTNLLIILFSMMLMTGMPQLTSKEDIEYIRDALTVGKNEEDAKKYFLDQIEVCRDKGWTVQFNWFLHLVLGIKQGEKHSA
Chain of PIK3CD (Human) (O00329 whole entry, looked up): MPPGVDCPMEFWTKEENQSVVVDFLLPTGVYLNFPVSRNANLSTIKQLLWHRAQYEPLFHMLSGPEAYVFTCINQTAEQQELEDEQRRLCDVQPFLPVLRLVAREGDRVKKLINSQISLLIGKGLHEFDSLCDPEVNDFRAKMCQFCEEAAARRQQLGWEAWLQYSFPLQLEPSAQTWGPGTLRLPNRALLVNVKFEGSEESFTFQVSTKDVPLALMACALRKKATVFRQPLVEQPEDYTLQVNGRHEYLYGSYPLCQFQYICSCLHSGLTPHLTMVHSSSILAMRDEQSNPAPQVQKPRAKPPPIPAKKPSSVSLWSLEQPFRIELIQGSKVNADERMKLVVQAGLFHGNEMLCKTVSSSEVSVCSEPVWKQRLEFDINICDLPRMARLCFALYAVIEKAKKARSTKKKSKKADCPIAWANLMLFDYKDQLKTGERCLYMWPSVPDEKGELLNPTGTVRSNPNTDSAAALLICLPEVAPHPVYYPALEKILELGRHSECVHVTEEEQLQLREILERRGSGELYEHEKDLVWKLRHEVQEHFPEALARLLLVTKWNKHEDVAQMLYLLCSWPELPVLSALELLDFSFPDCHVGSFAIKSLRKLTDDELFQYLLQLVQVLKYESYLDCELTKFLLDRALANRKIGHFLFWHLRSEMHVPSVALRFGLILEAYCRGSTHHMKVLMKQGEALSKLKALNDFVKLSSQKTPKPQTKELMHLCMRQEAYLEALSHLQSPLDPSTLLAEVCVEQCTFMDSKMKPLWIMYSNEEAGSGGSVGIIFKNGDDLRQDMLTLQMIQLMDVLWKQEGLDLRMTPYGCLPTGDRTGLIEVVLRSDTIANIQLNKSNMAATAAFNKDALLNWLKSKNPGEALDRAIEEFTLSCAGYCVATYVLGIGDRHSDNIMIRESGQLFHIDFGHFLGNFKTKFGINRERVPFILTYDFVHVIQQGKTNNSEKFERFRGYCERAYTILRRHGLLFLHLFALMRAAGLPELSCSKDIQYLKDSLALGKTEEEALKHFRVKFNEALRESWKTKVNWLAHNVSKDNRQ
Chain of PIK3CA (human) (P42336 whole entry, looked up): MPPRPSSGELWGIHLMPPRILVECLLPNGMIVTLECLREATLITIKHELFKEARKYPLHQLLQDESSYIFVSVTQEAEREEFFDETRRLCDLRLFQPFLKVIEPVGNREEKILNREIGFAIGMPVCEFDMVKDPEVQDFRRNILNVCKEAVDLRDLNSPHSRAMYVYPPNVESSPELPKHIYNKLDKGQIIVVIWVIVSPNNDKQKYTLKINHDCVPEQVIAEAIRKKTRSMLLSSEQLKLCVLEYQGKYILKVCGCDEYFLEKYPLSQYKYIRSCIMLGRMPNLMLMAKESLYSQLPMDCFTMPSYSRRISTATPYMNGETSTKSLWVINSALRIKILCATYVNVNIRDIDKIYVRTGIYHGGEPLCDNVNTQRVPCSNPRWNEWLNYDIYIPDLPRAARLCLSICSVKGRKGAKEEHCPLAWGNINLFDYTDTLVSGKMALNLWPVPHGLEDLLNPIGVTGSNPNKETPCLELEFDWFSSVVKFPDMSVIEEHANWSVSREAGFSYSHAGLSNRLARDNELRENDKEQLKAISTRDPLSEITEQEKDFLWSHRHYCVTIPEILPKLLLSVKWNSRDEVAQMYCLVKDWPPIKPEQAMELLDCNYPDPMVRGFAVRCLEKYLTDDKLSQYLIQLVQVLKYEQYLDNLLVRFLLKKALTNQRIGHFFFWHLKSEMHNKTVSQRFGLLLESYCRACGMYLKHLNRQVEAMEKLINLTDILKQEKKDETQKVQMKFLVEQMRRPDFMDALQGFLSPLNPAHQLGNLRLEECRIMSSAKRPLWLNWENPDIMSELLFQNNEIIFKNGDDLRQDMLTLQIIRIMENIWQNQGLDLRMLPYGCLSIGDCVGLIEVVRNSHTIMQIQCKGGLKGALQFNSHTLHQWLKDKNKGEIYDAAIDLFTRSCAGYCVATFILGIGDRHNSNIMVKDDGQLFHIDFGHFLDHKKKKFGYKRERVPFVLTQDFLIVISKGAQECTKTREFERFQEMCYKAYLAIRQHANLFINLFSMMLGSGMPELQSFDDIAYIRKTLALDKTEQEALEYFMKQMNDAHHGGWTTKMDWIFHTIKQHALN

## COc1cc(-c2cccc3cc([C@H](C)Nc4nc(N)ncc4C(=O)N4CC(F)(F)C4)n(-c4ccccc4)c(=O)c23)ccn1
PIK3CD (Human)
  IC50: 100 to 1000 nM
PIK3CG (human)
  IC50: 100 to 1000 nM
PIK3CA (human)
  IC50: > 10000 nM
PIK3CB (Human)
  IC50: > 10000 nM

## C[C@H](Nc1nc(N)ncc1C#N)c1cc2cccc(-c3cccc(O)n3)c2c(=O)n1-c1ccccc1
PIK3CD (Human)
  IC50: < 100 nM
PIK3CG (human)
  IC50: 100 to 1000 nM
PIK3CA (human)
  IC50: > 10000 nM
PIK3CB (Human)
  IC50: > 10000 nM

## COc1cc(-c2cccc3cc([C@H](C)Nc4nc(N)ncc4C(=O)N(C)C)n(-c4ccccc4)c(=O)c23)ccn1
PIK3CD (Human)
  IC50: < 100 nM
PIK3CG (human)
  IC50: < 100 nM
PIK3CA (human)
  IC50: 100 to 1000 nM
PIK3CB (Human)
  IC50: > 10000 nM

## CC(=O)Nc1cnc(N)nc1N[C@@H](C)c1cc2cccc(Cl)c2c(=O)n1-c1ccccc1
PIK3CD (Human)
  IC50: > 10000 nM
PIK3CA (human)
  IC50: > 10000 nM
PIK3CB (Human)
  IC50: > 10000 nM

## COc1cc(-c2cccc3cc([C@H](C)Nc4nc(N)nc(C)c4C#N)n(-c4ccccc4)c(=O)c23)ccn1
PIK3CD (Human)
  IC50: < 100 nM
PIK3CG (human)
  IC50: < 100 nM
PIK3CA (human)
  IC50: < 100 nM
PIK3CB (Human)
  IC50: 100 to 1000 nM

## COc1cc(-c2cccc3cc([C@H](C)Nc4nc(N)ncc4-c4ccccc4)n(-c4ccccc4)c(=O)c23)ccn1
PIK3CD (Human)
  IC50: 100 to 1000 nM
PIK3CG (human)
  IC50: < 100 nM
PIK3CA (human)
  IC50: > 10000 nM
PIK3CB (Human)
  IC50: > 10000 nM

## COc1cncc(-c2cccc3cc([C@H](C)Nc4nc(N)ncc4C#N)n(-c4ccccc4)c(=O)c23)c1
PIK3CD (Human)
  IC50: < 100 nM
PIK3CG (human)
  IC50: < 100 nM
PIK3CA (human)
  IC50: 100 to 1000 nM
PIK3CB (Human)
  IC50: 100 to 1000 nM

## COc1cc(-c2cccc3cc([C@H](C)Nc4nc(N)ncc4-c4cc(O)cc(F)c4)n(-c4ccccc4)c(=O)c23)ccn1
PIK3CD (Human)
  IC50: < 100 nM
PIK3CG (human)
  IC50: 100 to 1000 nM
PIK3CA (human)
  IC50: > 10000 nM
PIK3CB (Human)
  IC50: > 10000 nM

## C[C@H](Nc1nc(Cl)ncc1[N+](=O)[O-])c1cc2cccc(Cl)c2c(=O)n1-c1ccccc1
PIK3CD (Human)
  IC50: 100 to 1000 nM
PIK3CA (human)
  IC50: > 10000 nM
PIK3CB (Human)
  IC50: > 10000 nM

## C[C@H](Nc1nc(N)ncc1C(=O)N1CCC1)c1cc2cccc(-c3cnn(C)c3)c2c(=O)n1-c1ccccc1
PIK3CD (Human)
  IC50: 100 to 1000 nM
PIK3CG (human)
  IC50: < 100 nM
PIK3CA (human)
  IC50: > 10000 nM
PIK3CB (Human)
  IC50: > 10000 nM

## COc1ncc(-c2cccc3cc([C@H](C)Nc4nc(N)ncc4C(F)(F)F)n(-c4cccc(F)c4)c(=O)c23)cn1
PIK3CD (Human)
  IC50: < 100 nM
PIK3CG (human)
  IC50: 100 to 1000 nM
PIK3CA (human)
  IC50: > 10000 nM
PIK3CB (Human)
  IC50: > 10000 nM

## CCN(C)C(=O)c1cnc(N)nc1N[C@@H](C)c1cc2cccc(-c3ccnc(OC)c3)c2c(=O)n1-c1ccccc1
PIK3CG (human)
  IC50: 100 to 1000 nM
PIK3CA (human)
  IC50: > 10000 nM
PIK3CB (Human)
  IC50: > 10000 nM

## C[C@H](Nc1nc(N)ncc1C#N)c1cc2cccc(-c3ccnc(O)c3)c2c(=O)n1-c1ccccc1
PIK3CD (Human)
  IC50: < 100 nM
PIK3CG (human)
  IC50: < 100 nM
PIK3CA (human)
  IC50: > 10000 nM
PIK3CB (Human)
  IC50: > 10000 nM

## COc1cc(-c2cccc3cc([C@H](C)Nc4nc(N)ncc4C#N)n(C4CC4)c(=O)c23)ccn1
PIK3CD (Human)
  IC50: < 100 nM
PIK3CG (human)
  IC50: < 100 nM
PIK3CA (human)
  IC50: 100 to 1000 nM
PIK3CB (Human)
  IC50: < 100 nM

## C[C@H](Nc1nc(N)ncc1C#N)c1cc2cccc(Cl)c2c(=O)n1C
PIK3CD (Human)
  IC50: 100 to 1000 nM
PIK3CG (human)
  IC50: 100 to 1000 nM
PIK3CA (human)
  IC50: > 10000 nM
PIK3CB (Human)
  IC50: 100 to 1000 nM

## COc1nc(-c2cnc(N)nc2N[C@@H](C)c2cc3cccc(Cl)c3c(=O)n2-c2ccccc2)cs1
PIK3CD (Human)
  IC50: < 100 nM
PIK3CG (human)
  IC50: < 100 nM
PIK3CA (human)
  IC50: 100 to 1000 nM
PIK3CB (Human)
  IC50: < 100 nM

## COc1ncc(-c2cccc3cc([C@H](C)Nc4nc(N)ncc4C(N)=O)n(-c4ccccc4)c(=O)c23)cn1
PIK3CD (Human)
  IC50: < 100 nM
PIK3CG (human)
  IC50: < 100 nM
PIK3CA (human)
  IC50: > 10000 nM
PIK3CB (Human)
  IC50: > 10000 nM

## COc1cnc(-c2cccc3cc([C@H](C)Nc4nc(N)ncc4C#N)n(-c4ccccc4)c(=O)c23)nc1
PIK3CG (human)
  IC50: 100 to 1000 nM
PIK3CA (human)
  IC50: > 10000 nM
PIK3CB (Human)
  IC50: > 10000 nM

## C[C@H](Nc1cc(Cl)ncn1)c1cc2cccc(Cl)c2c(=O)n1-c1ccccc1
PIK3CA (human)
  IC50: > 10000 nM
PIK3CB (Human)
  IC50: > 10000 nM

## C[C@H](Nc1nc(N)ncc1C#N)c1cc2cccc(Cl)c2c(=O)n1-c1cccnc1
PIK3CD (Human)
  IC50: < 100 nM
PIK3CG (human)
  IC50: < 100 nM
PIK3CA (human)
  IC50: > 10000 nM
PIK3CB (Human)
  IC50: 100 to 1000 nM

## COc1cc(-c2cccc3cc([C@@H](C)Nc4nc(N)ncc4C#N)n(-c4ccccc4)c(=O)c23)ccn1
PIK3CD (Human)
  IC50: < 100 nM
PIK3CG (human)
  IC50: 100 to 1000 nM
PIK3CA (human)
  IC50: > 10000 nM
PIK3CB (Human)
  IC50: > 10000 nM

## CNC(=O)c1cnc(N)nc1N[C@@H](C)c1cc2cccc(-c3ccnc(OC)c3)c2c(=O)n1-c1ccccc1
PIK3CD (Human)
  IC50: < 100 nM
PIK3CG (human)
  IC50: < 100 nM
PIK3CA (human)
  IC50: 100 to 1000 nM
PIK3CB (Human)
  IC50: 100 to 1000 nM

## C[C@H](Nc1nc(N)ncc1-c1ccccc1)c1cc2cccc(Cl)c2c(=O)n1-c1ccccc1
PIK3CG (human)
  IC50: 100 to 1000 nM
PIK3CA (human)
  IC50: > 10000 nM
PIK3CB (Human)
  IC50: > 10000 nM

## C[C@H](Nc1nc(N)ncc1NS(C)(=O)=O)c1cc2cccc(Cl)c2c(=O)n1-c1ccccc1
PIK3CD (Human)
  IC50: > 10000 nM
PIK3CG (human)
  IC50: > 10000 nM
PIK3CA (human)
  IC50: > 10000 nM
PIK3CB (Human)
  IC50: > 10000 nM

## C[C@H](Nc1nc(N)ncc1C#N)c1cc2cccc(C#CCCC(=O)N3CCOCC3)c2c(=O)n1-c1ccccc1
PIK3CD (Human)
  IC50: < 100 nM
PIK3CG (human)
  IC50: < 100 nM
PIK3CA (human)
  IC50: 100 to 1000 nM
PIK3CB (Human)
  IC50: 100 to 1000 nM

## COc1ncc(-c2cccc3nc([C@H](C)Nc4nc(N)ncc4C#N)n(-c4ccccc4)c(=O)c23)cn1
PIK3CD (Human)
  IC50: < 100 nM
PIK3CG (human)
  IC50: < 100 nM
PIK3CA (human)
  IC50: > 10000 nM
PIK3CB (Human)
  IC50: > 10000 nM

Source: the Kinase Knowledgebase extract (Sharma et al. 2016)
